Assay results reported in patent US20250228796A1, “SKELETAL MUSCLE ENHANCER” (SATO PHARMACEUTICAL CO., LTD., priority 2022, published 2025).

What was measured:
Format in all cases: in vivo, mouse
[1] = system: tibialis anterior muscle of muscle damage model (CTX); assay: Muscle damage model (cardiotoxin): muscle weight and regenerated muscle fiber cross-sectional area; settings: 7 days after CTX
Method: (§1) Seven-week old C57BL/6 Male mice (CLEA Japan, Inc.) were purchased, and used for experiment at the age of 8 weeks.
A model animal to which muscle damage had been caused by administion of snake venom cardiotoxin (CTX) was used. The model animal has been widely used in studies on regeneration from muscle damage.
Under the anesthesia with isoflurane, 50 μL of 10 μM CTX was administered to the tibialis anterior muscle of the right hindlimb of the mouse. Fifty μL of a phosphate buffer (PBS) was administered as a Vehicle to the tibialis anterior muscle of left hindlimb of the same mouse. After 7 days of the administration of CTX, the tibialis anterior muscle was collected by dissection, and supplied to the measurement of muscle weight and preparation of a muscle tissue section.
(§2) Body weight of the mouse was measured before collecting the tibialis anterior muscle. Furthermore, the weight of the collected tibialis anterior muscle was measured. From these measured values, the ratio (%) of the skeletal muscle weight per body weight of the mouse (weight of tibialis anterior muscle/body weight of mouse) was calculated.
(§3) Immediately after the collection of the tibialis anterior muscle, the tibialis anterior muscle was immersed in isopentane cooled with liquid nitrogen and was rapidly frozen. The frozen muscle tissue was cut into slices each having a thickness of 10 μm by using a cryostat (Leica Biosystems), and the slice was attached onto an antistripping coated slide glass (Matsunami Glass Ind., Ltd.).
A muscle tissue section was sufficiently air dried for 30 minutes under room temperature. After that, the muscle tissue sections was fixed by immersing it in acetone cooled to −30° C. and treating at −30° C. for 20 minutes. The fixed sections was air dried once and washed with PBS. Then the section was blocked by dropwisely adding a blocking reagent (Blocking One. NACALAI TESQUE, INC.) to the section and subjected to the blocking treatment for 1 hour. Next, a primary antibody (Anti-laminin-2 (α-2 Chain) antibody Rat monoclonal (Sigma-Aldrich)) obtained by being diluted 500 times with a blocking reagent was added dropwise, and the reaction was conducted at overnight at 4° C. Since laminin to which a primary antibody binds is a protein expressed in the basement membranes of all muscle cells, the laminin was used in this experiment as an index in order to measure the area of individual muscle cells in a section. The muscle tissue section after the reaction with the primary antibody was washed with PBS, and then was reacted for 1 hour with a secondary antibody (CF 488A Goat Anti-Rat IgG (H+L) (Biotium)) obtained by being diluted 500 times with the blocking reagent. The secondary antibody that is an anti-rat antibody conjugated with a fluorescent dye binds to the primary antibody, and stains the laminin. The muscle tissue sections after the reaction with the secondary antibody was washed with PBS, and sealed by using “VECTASHIELD Hard. Set with DAPI” (Vector), and then the fluorescence observation was performed with an inverted microscope FSX100 (Olympus).
The muscle fiber cross-sectional area was measured basis of the image data taken from the fluorescence observation. After the image data was taken into image analysis software ImageJ (NIH), the cross-sectional area of the individual cells were measured on the basis of the cell membrane stained with laminin. For the area measurement, “Analyze Particles” that is an add-in analysis program on ImageJ was used. The measurement results were shown as a distribution chart (histogram) of the areas and number of single-muscle fibers, and as an average value of the cross-sectional areas of all the single muscle fibers (mean muscle fiber area).
In the muscle damage model (Example 3), the regenerated muscle was used as a measurement target. […]

[2] = system: tibialis anterior muscle of muscle atrophy model; assay: Muscle atrophy model (hindlimb fixation): muscle weight and muscle fiber cross-sectional area; settings: intramuscular
Text: as §1
A model animal to which muscle atrophy had been caused by a method of fixing a hindlimb (J Appl Physiol, vol. 106, pp. 2049-2059, 2009) was used.
(§4) Under the anesthesia with isoflurane, the left hindlimb of the mouse in a bent state was fixed with a surgical stapler (Kaiser Plus. KEISEI MEDICAL INDUSTRIAL CO., LTD.). The right hindlimb of the same mouse was assigned to the sham-treatment side, and no fixation treatment was performed. After 3 or 7 days of the start of fixation, the tibialis anterior muscle (one of skeletal muscles) was collected by dissection. The sample collected after 3 days was supplied to the expression analysis of the muscle atrophy-related genes, and the sample collected after 7 days was supplied to the measurement of a muscle weight and the preparation of a muscle tissue section.
as §2, §3
A muscle tissue section was sufficiently air dried for 30 minutes under room temperature. After that, the muscle tissue sections was fixed by immersing it in acetone cooled to −30° C. and treating at −30° C. for 20 minutes. The fixed sections was air dried once and washed with PBS. Then the section was blocked by dropwisely adding a blocking reagent (Blocking One. NACALAI TESQUE, INC.) to the section and subjected to the blocking treatment for 1 hour. Next, a primary antibody (Anti-laminin-2 (α-2 Chain) antibody Rat monoclonal (Sigma-Aldrich)) obtained by being diluted 500 times with a blocking reagent was added dropwise, and the reaction was conducted at overnight at 4° C. Since laminin to which a primary antibody binds is a protein expressed in the basement membranes of all muscle cells, the laminin was used in this experiment as an index in order to measure the area of individual muscle cells in a section. The muscle tissue section after the reaction with the primary antibody was washed with PBS, and then was reacted for 1 hour with a secondary antibody (CF 488A Goat Anti-Rat IgG (H+L) (Biotium)) obtained by being diluted 500 times with the blocking reagent. The secondary antibody that is an anti-rat antibody conjugated with a fluorescent dye binds to the primary antibody, and stains the laminin. […] Set with DAPI” (Vector), and then the fluorescence observation was performed with an inverted microscope FSX100 (Olympus).
The muscle fiber cross-sectional area was measured basis of the image data taken from the fluorescence observation. After the image data was taken into image analysis software ImageJ (NIH), the cross-sectional area of the individual cells were measured on the basis of the cell membrane stained with laminin. […]

[3] = system: myostatin (Mstn) mRNA expression; assay: Expression analysis of muscle atrophy-related gene Mstn in muscle atrophy model; settings: 3 days
Method: as §4
(§5) The tibialis anterior muscle was homogenized with Sepasol-RNA I Super G (NACALAI TESQUE, INC.), 1-bromo-3-chloropropane was added thereto, the mixture was stirred, and further centrifuged, then RNA was extracted from the supernatant. The extracted RNA was recovered with 2-propanol and 75% ethanol, and then subjected to the reverse transcription reaction (using ReverTra Ace qPCR RT Master Mix (Toyobo Co., Ltd.) according to the attached protocol) to synthesize cDNA. The synthesized CDNA was subjected to the real-time PCR method (using Applied Biosystems 7500 Real-Time PCR System (Thermo Fisher Scientific)) to measure mRNA expression of three genes, Trim63 (MuRF1), myostatin (Mstn), and Gapdh. Primer sequences used are as follows.
(§6) The expression levels of mRNA of Trim63 and Mstn (mTrim63 and mMstn) were calculated as a ratio to the expression level of mRNA of Gapdh (mGapdh). […]
(§7) Spermidine trihydrochloride (SPD) was administered to muscle atrophy model animals by three administration routes, and the expression variations of muscle atrophy-related genes Trim63 and Mstn were measured. […]
(§8) The mRNA expression of Trim63 and Mstn in the tibialis anterior muscle of the left hindlimb (fixed: Staple) and the right hindlimb (sham treatment: Sham) collected after 3 days of the start of fixation was measured.

[4] = system: Trim63 (MuRF1) mRNA expression; assay: Expression analysis of muscle atrophy-related gene Trim63 in muscle atrophy model; settings: 3 days
Method: as §4, §5, §6, §7, §8

[5] = intraperitoneal, 19.6 mM 10 mL/kg once a day

`Cl.Cl.Cl.NCCCCNCCCN` [SPD, Spermidine trihydrochloride] was tested, and the “suppression of muscle weight loss by CTX” value ([1]; intramuscular, 196 mM 10 μL once a day) was “remarkable suppression”, the “histogram of regenerated single-muscle fiber area vs Vehicle” value ([1]; intramuscular) was “shifted to the right side” and the “mean muscle fiber area (regenerated muscle) vs Vehicle” value ([1]; intramuscular, ***P<0.001) was “significant increase”. For the same compound, the “suppression of muscle weight loss by CTX” value [1, 5] was “a significant suppression was not observed”, the “histogram of regenerated single-muscle fiber area vs Vehicle” value ([1]; intraperitoneal) was “no shift” and the “mean muscle fiber area (regenerated muscle) vs Vehicle” value ([1]; intraperitoneal) was “no significant increase”. For the same compound, the “suppression of muscle weight loss by CTX” value ([1]; oral, 30 mM in drinking water) was “a significant suppression was not observed”, the “histogram of regenerated single-muscle fiber area vs Vehicle” value ([1]; oral) was “no shift” and the “mean muscle fiber area (regenerated muscle) vs Vehicle” value ([1]; oral) was “no significant increase”. For the same compound, the “muscle weight loss due to hindlimb fixation” value ([2]; 196 mM 10 μL once a day, 7 days, **P<0.01) was “significant suppression”, the “muscle weight vs Vehicle administration group” value ([2]; 196 mM 10 μL once a day, left hindlimb (fixed: Staple), 7 days after start of fixation) was “significant increase” and the “muscle weight vs Vehicle administration group” value ([2]; 196 mM 10 μL once a day, right hindlimb (sham treatment: Sham), 7 days after start of fixation) was “significant increase”. The “mean muscle fiber area vs Vehicle” value ([2]; 7 days after start of fixation, ***P<0.001) was “significant increase”, the “histogram of single-muscle fiber area vs Vehicle” value ([2]; 7 days after start of fixation, whole muscle) was “shifted to the right side” and the “Mstn expression suppression (reduction vs Staple, Vehicle)” value ([3]; intramuscular, 196 mM 10 μL once a day, Staple, **P<0.01) was 61.1%. The Mstn expression suppression [3, 5] was “did not show significant expression suppression”, the Mstn expression suppression ([3]; oral, 30 mM in drinking water) was “did not show significant expression suppression” and the “Trim63 expression suppression (reduction vs Staple, Vehicle)” value ([4]; intramuscular, 196 mM 10 μL once a day, fixed left hindlimb (Staple), *P<0.05) was 65.6%. The “Trim63 expression suppression (reduction vs Staple, Vehicle)” value ([4]; intraperitoneal, 19.6 mM 10 mL/kg once a day, Staple) was 42.3% and the Trim63 expression suppression ([4]; oral, 30 mM in drinking water) was “no expression suppression”.
